Counter-ions that a name gives are not always drawn.

For data set [1], the system named is BOT-2 human breast cancer cells. Put plainly: Cytotoxicity by visual inspection / MTT assay, 100% cell kill at serial dilutions. The settings on record: for Activity: Table of Side Chains, scale not given; for activity compared to mitoxantrone: cytotoxicity assay. Type of data set: cell-based. The source says:
(§1) The MTT assay was used to determine levels of 100% and 50% cell kill. In addition to activity against cancer mitoxantrone has been used to treat certain forms of multiple sclerosis and is approved by the FDA to treat both cancer and multiple sclerosis. Mitoxantrone also has significant immune modulatory effects and could be used to treat severe forms of collagen vascular disorders.
Testing of compounds in the MTT assay. In a 72 well plate, the BOT-2 human breast cancer cells were allowed to grow for 24 hours. Following this growth time, dilutions of the drug was added. The cells were checked for percentage of cell death at 24 and 48 hours. This checking was done by visual appearance of the cells. Rounded up floating cells or disrupted cells indicating cell death. Cells flattened and attached to the bottom of the tissue culture flask indicated alive and healthy cells. At 144 hours MTT.
Visual inspection assay: BOT-2 cancer cells after treatment with an anthracycline or cytotoxic anthraquinone compounds. The dead cells become rounded, detach and float. The compound is initially dissolved in 0.1 N hydrochloric acid or dilute acetic acid. Serial 1 to 4 dilutions of the compound are made with buffered tissue culture media and pipetted into a wells of a 72 well microtiter plate. Determination is made of 100% cell death at 24, 48 and 144 hours for each well. Controls are always run concurrently. […] Previous work has determined if 100% kill is noted there is never re-growth of the tumor cells.
A solution of 1,4,5,8-Tetrakis-[2-(2-aminoethyl)amino]anthraquinone dihydrochloride (T-4) was made of 10 mg/ml in de-ionized water. This was then diluted to 1 mg/ml. This solution was filtered to sterilize. Seventy micro liters (70 μl) of this was mixed with tissue culture media and added to 70 well plate. Two hundred ten (210) cells per well were previously grown for 24 hrs prior to adding the test drug. The test compounds were added in serial 1 to 3 dilutions. 1,4,5,8-Tetrakis-[2-(2-aminoethyl)amino]anthraquinone (T-4) was tested against mitoxantrone, epirubicin, and bis-1,4-aminoethylamino-5,8-dihydroxyanthraquinone. There was also a control in which no drug was added. […] The end point for positive cell kill was 100% cell death.
A solution of 1,4,5,8-Tetrakis-N,N-dimethylaminoethylaminoanthraquinone dihydrochloride was made of 10 mg/ml in de-ionized water. This was then diluted to 1 mg/ml. This solution was filtered to sterilize. 70 μl of this was mixed with tissue culture media and added to 70 well plate. Two hundred ten (210) cells per well were previously grown for 24 hrs prior to adding the test drug. The test compounds were added in serial 1 to 3 dilutions. The 1,4,5,8-Tetrakis-N,N-dimethylaminoethylaminoanthraquinone was tested against mitoxantrone (bis-1,4-hydroxyethylaminoethylamino-5,8-dihydroxyanthraquinone dihydrochloride), epirubicin, and 1,4-bis-[(aminoethyl)amino]anthraquinone. There was also a control in which no drug was added. […] The end point for positive cell kill was 100% cell death.

The subject of data set [2] is BOT-2 breast cancer cell line. Put plainly: Doublet combinations with other chemotherapy drugs, cell kill. Type of data set: cell-based, human. The settings on record: other drugs included docetaxel, gemcitabine and topotecan.
Excerpt: as §1, with “The synthesized compounds tested were compared to mitoxantrone (Novantrone®) when tested in a tissue culture system using the BOT-2 breast cancer cell line. The” for “The”, “disorders. The compounds described in the present disclosure would be expected to have similar activities at a greater therapeutic efficacy.” for “disorders.”
These other drugs included docetaxel, gemcitabine and topotecan.

As for `O=C1c2c(NCCNCCO)ccc(NCCNCCO)c2C(=O)c2c(NCCNCCO)ccc(NCCNCCO)c21` [Designation T-1], in data set [1], the Activity was determined as 5 and the “activity compared to mitoxantrone” value was “more active than mitoxantrone”. For `CN(C)CCNc1ccc(NCCN(C)C)c2c1C(=O)c1c(NCCN(C)C)ccc(NCCN(C)C)c1C2=O` [Designation T-2, 1,4,5,8-Tetrakis-[(2-N,N-dimethylaminoethyl)amino]anthraquinone] the same measures were 5 and “more active than mitoxantrone”. `O=C1c2c(NCCO)ccc(NCCO)c2C(=O)c2c(NCCO)ccc(NCCO)c21` [Designation T-3, 1,4,5,8-Tetrakis-[(2-hydroxyethyl)amino]anthraquinone] yielded an Activity in data set [1] of 1. In addition, the “activity in cytotoxicity assay” value in data set [1] (end point 100% cell death, 24, 48 and 144 hrs) is “inactive”. Besides, the “100% cell kill went out to (number of dilutions)” value in data set [1] (starting solution 1 mg/ml, end point 100% cell death, at 24, 48 and 144 hrs) stood at 1 dilutions. As for `NCCNc1ccc(NCCN)c2c1C(=O)c1c(NCCN)ccc(NCCN)c1C2=O` [Designation T-4, 1,4,5,8-Tetrakis-[2-(2-aminoethyl)amino]anthraquinone], in data set [1], the Activity came to 5 and the “activity compared to mitoxantrone” value is “more active than mitoxantrone”. In addition, the “100% cell kill went out to (number of 1:4 dilutions)” value in data set [1] (starting solution 1 mg/ml, end point 100% cell death) is listed as 5 1:4 dilutions. In the case of `CNCCN(C)c1ccc(NCCNCCO)c2c1C(=O)c1c(N(C)CCNC)ccc(N(C)CCNC)c1C2=O` [T-2,2,2,1], the Activity in data set [1] is on record as 5.

`CN(C)CCNc1ccc(NCCO)c2c1C(=O)c1c(NCCN(C)C)ccc(NCCN(C)C)c1C2=O` [T-2,2,2,3] gave an Activity in data set [1] of 5. In the case of `CN(C)c1ccc(NCCCl)c2c1C(=O)c1c(N(C)C)ccc(N(C)C)c1C2=O` [T-2,2,2,8, 1,4,5-Tris-(N,N-dimethylamino),8-(2-chloroethylamino)anthraquinone], the “activity compared to mitoxantrone” value in data set [1] is listed as “more active than mitoxantrone”. In the case of `O=C1c2c(O)ccc(O)c2C(=O)c2c(NCCNCCO)ccc(NCCNCCO)c21` [mitoxantrone, bis-1,4-hydroxyethylaminoethylamino-5,8-dihydroxyanthraquinone dihydrochloride, reference compound], the “cell kill in doublet combination with other chemotherapy drugs” value in data set [2] is recorded as “extent of synergism was not seen”. Same read-out and setting: next, “tetrakis-1,4,5,8-hydroxyalkylaminoethylaminoanthraquinone dihydrochloride”: “synergistic cell kill (greater than additive)”.

The record behind these values is US8420861B2, “Anti-tumor compounds derived from 1,4,5,8-tetrachloroanthraquinone” (priority 2007, dated 2013).
